Columns and labels:
in vivo = type: in vivo; conditions: both sexes, ICR, mouse, in vivo, po
Method: (§1) Experimental material: ZYS-1
(§2) Experimental animals and feeding conditions: ICR mice, half male and half female. Body weight 20±2 g, provided by Beijing Weitonglihua Experimental Animal Technology Co., Ltd., SPF grade feeding, certificate: SCXK (Beijing) 2006-0009. Particulate feed for mouse breeding was provided by Beijing Ke'ao Xieli Feed Co., Ltd. Animals were housed in barrier-level (Grade 2) animal lab in Beijing Anzhen Hospital, fluorescent lighting, 12 h light and dark cycle, room temperature 22˜24 ? , humidity 40-47%, air supply 10-12 times/h, Laboratory license number: SYXK (Beijing) 2005-0028. Mice were housed in clear plastic boxes with 5 per cage separated by gender.
(§3) Preparation method of test drug: A white powder of ZYS-1 was placed in a mortar to be finely ground. The drug was accurately weighed before use, which was formulated with 0.5% CMC-Na to reach the desired concentration.
(§4) Animals grouping: After fasting (except for water) for 11 h, according to body weight, animals were randomly divided into groups of 10 with 5 males and 5 females. There were 8 groups in total. […]. One-time intragastric administration was used in the experiment. The negative control group was orally administered an equal volume of 0.5% CMC-Na. The animals started feeding at 3 hours after administration.
(§5) Observed indicators: immediately after administration, the observation of the responses of the animals to drugs (such as: general performance, respiration, activity, with or without convulsions, righting reflex, pain reflex, response to external stimuli and other indicators) was started. After observing and recording the symptom of toxic reaction, the time and duration of toxicity, recovery time, and the time of animal death. After the animal was dead, it was immediately grossly dissected, visually observing each of the main organs (heart, liver, spleen, lung and kidney, stomach) to see if there was congestion, increased volume, hardens, discoloration. The survival animals were observed and recorded day by day whether there was delayed toxicity reaction and delayed death within 7 days, and weigh and feed the animals once every 2 days. After finishing the 7 day's observation, the survival animals were grossly dissected and the situations of the main organs were observed. LD50 was calculated according to the number of animal deaths in each group.

ICR mice = experiment: in vivo; type: in vivo
Method: as §1, §2, §3, §4, §5

HUVEC = HUVEC tubule formation assay; type: cell-based
Method: Tubule formation assay: the matrigel was thawed at 4° C. overnight, which was 1:1 diluted with serum-free ECM medium and coated onto 96-well plates. The diluted matrigel was sucked by precooled pipette gun tip, which was added into pre-cooled 96-well plates, with 50 μL per well. The matrigel was placed on ice for 5 min to make the matrigel surface level, and then the 96-well plates were put into a cell incubator at 37° C. for 1 h to cause gel coagulation. Trypsinize cells, the cells were counted and diluted with ECM medium. The cell density was adjusted to […], and the cells were seeded into coated 96-well plates with 100 μL per well. According to the MTT results, the ZYS-1 solution at different concentrations were formulated. 100 μL of the solutions were taken and added into the cell-seeded wells to make the final concentration at 2, 1, 0.5 μM. At the same time, the positive control was set as recombinant human endostatin (Endostar) and the negative control as without drugs but medium only. Each concentration of the experimental groups and the control groups all were set three replicates, which were placed and cultured in the incubator. After culturing 18 h, the culture was observed under microscope and taken the pictures to record the circumference, area of the generated tubes and the number of nodes as indicators for the formation of tubule. […]

Caspase-3 = Caspase-3 protein expression in HGC-27 cells (immunofluorescence); type: cell-based; conditions: n = 6
Method: (§6) The sterilized cell transfer membrane was taken and placed into a 24-well plate, which was seeded with 1 mL (1×10^5 cells/mL) cell suspension, and cultured for 24 h. Drug-containing medium was added, The negative control groups and administration groups were set, with the experimental groups intervened for 24-48 h. The plate was washed with PBS, and fixed with 4% paraformaldehyde for 15 min. It was treated with 0.1% TritonX-100, and washed with PBS, blocked with 1:10 diluted normal serum blocking solution for 15 min. The plate was added 1:100 diluted primary antibody, placed at 4° C. overnight. The plate was washed with PBS, to which 1:100 diluted secondary antibodies was added and incubated at room temperature for 30 min. The plate was washed with PBS, to which 1:100 diluted SABC-FITC was added, and re-incubated at room temperature for additional 30 min. The unbound FITC was washed with PBS. We observed and taken pictures under fluorescence microscope, and analyzed the fluorescence intensity by Bioflux Montage software. 6 fields were selected randomly under microscope for each group and the integral optical density value of cells was calculated.

[1] = In vivo pharmacokinetic comparison in rats
Method: Twelve male Wistar rats were randomly divided into ZYS-1 group and PAC-1 group. These rats were fasted for 12 hours before administration, and fed water freely. After ZYS-1 and PAC-1 needle crystal were given at the dose of 60 mg/Kg, 0.5 mL orbital blood was collected at 0, 5, 20, 30, 45, 60, 120, 180, 240, 360, 480, 720 mins, centrifuged at 5000 r/min for 5 min. 200 μL plasma was taken. The plasma was added 3 mL acetone and vortexed for 1 min. After centrifuging at 15000 r/min for 5 min, the supernatant was collected and dried under nitrogen at 37° C., to which 200 μL acetonitrile was added to be reconstituted. After sonication for 10 min, the mixture was vortexed for 1 min, and filtered through 0.45 microporous filter membrane. The filtrate was tested by HPLC, and the plasma concentration at each time point was calculated.

XIAP = XIAP protein expression in HGC-27 cells (immunofluorescence); type: cell-based; conditions: n = 6
Method: as §6

[2] = both, ICR, mouse, in vivo, 7 days
[3] = one-time intragastric administration, mice
[4] = male Wistar rats, 60 mg/Kg, n = 6

C=CCc1cccc(/C=N/NC(=O)CN2CCN(Cc3ccccc3)CC2)c1O [ZYS-1, 1-Piperazineacetic acid, 4-(phenylmethyl)-2-[[2-hydroxy-3-(2-propen-1-yl)phenyl]methylene]]
LD50 at 7 days (in vivo; LD50 95% confidence limit): 1090 to 2290 mg/kg
LD50 at 7 days (in vivo; LD50 dose): 1670 mg/kg
0% mortality dose (ICR mice; [2]): 343 mg/kg
non-significant toxic reaction dose (ICR mice; [2]): 343 mg/kg
neurotoxicity, ZYS-1 compared with PAC-1 (ICR mice; both, ICR, mouse, in vivo, po, 7 days): Comparing the experimental results of acute toxicity of ZYS-1 and PAC-1, it can be seen that ZYS-1 has lower neurotoxicity.
time for most survival animals to return to normal after administration (ICR mice; [3]): ≤ 12 h
time of death after administration (mainly) (ICR mice; [3]): ≤ 6 h
inhibition of tubule formation compared with positive control 2.5 μg/mL Endostar (HUVEC; 2 μM ZYS-1 group): similar
effect on formation of endothelial cell tubules induced in vitro (HUVEC; 2, 1, 0.5 μM, 18 h): strong inhibitory effect
Caspase-3 protein expression (integral optical density value) (Caspase-3; 4 μM): 37.26 ± 0.39
Caspase-3 protein expression (integral optical density value) (Caspase-3; 8 μM): 39.36 ± 1.20
MRT(0-∞) [1, 4]: 420.4914 ± 271.8423 h
T½ka [1, 4]: 22.9129 ± 6.3243 h
T½α [1, 4]: 209.5239 ± 129.5666 h
V/F [1, 4]: 0.0308 ± 0.0167 L
ka [1, 4]: 0.0324 ± 0.0098 h⁻¹
ke [1, 4]: 0.0048 ± 0.0033 h⁻¹
lagtime [1, 4]: 4.6861 ± 5.2184 h
AUC(0-inf) ([1]; male, Wistar, rat, plasma, 60 mg/kg, n = 6): 724 ± 207 µg·h/mL
AUC ([1]; male, Wistar, rat, plasma, 60 mg/kg, n = 6, read-out: AUC(0-tn)): 389 ± 136 µg·h/mL
Cmax ([1]; male, Wistar, rat, plasma, 60 mg/kg, n = 6, read-out: Cmax): 2190 ± 127 ng/mL
MRT ([1]; male, Wistar, rat, plasma, 60 mg/kg, n = 6, read-out: MRT(0-tn)): 167 ± 51.5 h
Tmax ([1]; male, Wistar, rat, plasma, 60 mg/kg, n = 6, read-out: Tmax): 65 ± 9.44 h
XIAP protein expression (integral optical density value) (XIAP; 4 μM): 38.22 ± 0.81
XIAP protein expression (integral optical density value) (XIAP; 8 μM): 36.27 ± 1.03
